For assay [1], the target named is T1, glucocorticoid receptor (GR) (Homo sapiens, UniProt P04150).
T1 construct: made in house; host or cells: Sf9 cells infected with recombinant baculovirus (cytosol preparation)
T1 sequence (P04150 1-777): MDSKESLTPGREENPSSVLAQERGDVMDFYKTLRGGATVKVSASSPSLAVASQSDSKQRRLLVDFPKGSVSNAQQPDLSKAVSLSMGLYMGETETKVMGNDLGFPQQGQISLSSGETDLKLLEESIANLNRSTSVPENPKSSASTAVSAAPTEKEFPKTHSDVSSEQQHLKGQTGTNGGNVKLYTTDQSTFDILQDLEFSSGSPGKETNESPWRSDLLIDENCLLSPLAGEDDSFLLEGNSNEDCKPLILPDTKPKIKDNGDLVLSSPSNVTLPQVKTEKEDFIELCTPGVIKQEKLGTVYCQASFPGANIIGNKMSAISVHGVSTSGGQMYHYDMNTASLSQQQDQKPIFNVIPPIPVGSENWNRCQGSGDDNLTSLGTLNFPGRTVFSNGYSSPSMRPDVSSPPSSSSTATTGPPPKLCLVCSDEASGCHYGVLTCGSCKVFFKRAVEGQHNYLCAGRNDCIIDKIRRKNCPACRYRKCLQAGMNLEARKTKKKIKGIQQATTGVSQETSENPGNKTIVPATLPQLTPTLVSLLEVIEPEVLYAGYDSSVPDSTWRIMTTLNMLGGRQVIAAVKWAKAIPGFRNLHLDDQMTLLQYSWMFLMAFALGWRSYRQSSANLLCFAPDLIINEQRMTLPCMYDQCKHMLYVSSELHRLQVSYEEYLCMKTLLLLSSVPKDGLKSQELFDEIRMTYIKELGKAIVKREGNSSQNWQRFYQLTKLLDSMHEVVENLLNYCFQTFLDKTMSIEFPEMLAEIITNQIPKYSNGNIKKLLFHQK
The assay is described as follows: Binding to the glucocorticoid receptor, cytosol preparations of Sf9 cells, [3H]-dexamethasone as reference. The conditions noted are these: recombinant GR. From the text:
The binding of substances to the glucocorticoid receptor (GR) and other steroid-hormone receptors (mineral corticoid receptor (MR), progesterone receptor (PR) and androgen receptor (AR)) is examined with the aid of recombinantly produced receptors. Cytosol preparations of Sf9 cells, which had been infected with recombinant baculoviruses that code for the GR, are used for the binding studies. In comparison to the reference substance [^3H]-dexamethasone, the substances show a high affinity to the GR. IC50(GR)=20 nM and IC50(PR)>1 μM were measured for the compound from Example 1, and IC50(GR)=30 nM and IC50(PR)>1 μM were measured for the compound from Example 2.

The test system of assay [2] is secretion of cytokine IL-8 in monocyte cell line THP-1. The assay is described as follows: Inhibition of LPS-triggered IL-8 secretion in THP-1 cells (ELISA). The format is cell-based, human. As for the experimental part:
The concentration of the cytokines was determined in the supernatant by means of commercially available ELISA kits.

For `C/C=C1/C[C@@](O)(C(F)(F)F)[C@H](Nc2cccc3nc(C)ccc23)c2ccc(F)cc21` (relative stereo) [Example 1, (cis, Z)-4-Ethylidene-6-fluoro-1-[(2-methylquinolin-5-yl)amino]-2-(trifluoromethyl)-1,2,3,4-tetrahydronaphthalen-2-ol], the concentration for half-maximal inhibition (IC50) in assay [1] was found to be 20 nM; in assay [2] (THP-1, supernatant ELISA, read-out: IC50(IL8)), 6.4 nM. Moreover, in assay [2] (IL-8 inhibition, THP-1), the “efficiency relative to [3H]-dexamethasone as a standard” value was 90%.
As to “(cis, Z)-5-{[4-Ethylidene-6-fluoro-2,5-dihydroxy-2-(trifluoromethyl)-1,2,3,4-tetrahydronaphthalen-1-yl]amino}-quinolin-2(1H)-one [Example 2]”, the IC50 in assay [1] stood at 30 nM.

(Values after patent US20060084652A1, “Alkylidene-tetrahydronaphthalene derivatives, process for their production and their use as anti-inflammatory agents” (priority 2004, published 2006).)
